Measured values published in patent publication US5637582A, “Peripheral circulation improving agent” (priority 1992, dated 1997).
Structures can show the parent of a compound that is named as a salt.

How the values were obtained:
femoral artery [1] = assay: Maximum increase in femoral arterial blood flow in anesthetized dogs, cumulative i.v. dosing (Experimental Example 3); format: in vivo, dog; details: maximum during 60 min
Description: (§1) Adult dogs (one group consisting of 5 dogs) were intravenously given the test compound under anesthesia and artificial respiration successively at intervals of 60 minutes so that the dose can be 10, 30, 100, 300 and 1000 μg/kg body weight, and the blood flow of femoral artery was measured with a time course. […] An increase in the femoral arterial blood flow was calculated by subtracting the blood flow before the administration of the first dose of test compound as the standard value (the base line) from that of maximum during an interval of 60 minutes after each administration.

femoral artery [2] = assay: Increase in femoral arterial blood flow in anesthetized dogs, cumulative i.v. dosing (Experimental Example 1); format: in vivo, dog; details: 60 min after administration
Description: as §1, with “a dog)” for “5 dogs)”, “100 and” for “100,”, “300” for “300 and 1000”, “that” for “that of maximum during an interval of”

hind leg edema = assay: Hind leg frostbite model: model of Raynaud's disease (Experimental Example 7); format: in vivo, male SD rat; details: for % Inhibition of edema / Edema: 30 mg/kg, orally twice a day for 6 days; for edema inhibition activity: rat hind leg frostbite model, in words
Description: (Hind leg frostbite model: Model of Raynaud's disease)
Left hind leg of male SD rat (one group: 3 to 5 rats) was dipped in dry ice-ethanol for 2 seconds, and after 30 minutes, 30 mg/kg of a test compound dissolved in pure water was administered to the rat and then orally administered twice a day for 6 days continuously. At the final day of the experiment, volumes of both hind legs (below ankle joint) of the rat were measured by a water substitution method and an edema ratio was calculated from the following equation. Also, an inhibition ratio of the test compound administered group was obtained by comparing the edema ratio of the group in which the test compound was not administered. [formula]
The present model is disclosed, for example, in Hayashi et al, "Pharmacological Studies on Niceritrol (10), The Effects on Experimental Models of Peripherally Circulatory Insufficiency", Applied Pharmacology, 24 (6): 859-864 (1982), noting particularly the section "2. Effect on an experimental frostbite model" on page 860.

arterial blood pressure = assay: Change of arterial blood pressure in anesthetized dogs (Experimental Example 4); details: 100 μg/kg i.v.
Description: (§2) Each test compound was intravenously administered to adult dogs (one group consisting of 2 or 4 dogs) under anesthesia and artificial respiration at a dose of 100 μg/kg body weight. Femoral arterial blood flow, vertebral arterial blood flow and arterial blood pressure were measured 1, 3, 5, 10, 20 and 30 minutes after the administration. The femoral arterial blood flow and vertebral arterial blood flow were measured with an electromagnetic blood flowmeter (manufactured by Nihon Koden, MFV-2100, trade name) through a flow probe attached to the femoral artery or vertebral artery. The arterial blood pressure was measured with a pressure transducer (manufactured by Millar, MICRO-TIP, Model SPC-350) through a catheter attached to the brachial artery.
(§3) Changes of the femoral arterial blood flow, vertebral arterial blood flow and arterial blood pressure were estimated by comparing the values measured before and after the administration of the test compound.

femoral artery [3] = assay: Change of femoral arterial blood flow in anesthetized dogs (Experimental Example 4); format: in vivo, dog; details: 100 μg/kg i.v.; for AUC60 of the femoral arterial blood flow: 60 minutes after administration; for Increase in femoral arterial blood flow: 10 minutes after the administration
Description: as §2, §3

vertebral artery = assay: Change of vertebral arterial blood flow in anesthetized dogs (Experimental Example 4); details: 100 μg/kg i.v.
Description: as §2, §3

[4] = G and H: one minute after, in words

With Cc1ccc([C@H]2Sc3cc(C)ccc3N(CCN(C)C)C(=O)[C@H]2O)cc1 [B] the “Increase in femoral arterial blood flow” value (femoral artery [1]; 10 μg/kg i.v.) was 10.4 mL/min, the “Increase in femoral arterial blood flow” value (femoral artery [1]; 30 μg/kg i.v.) was 16.4 mL/min and the “Increase in femoral arterial blood flow” value (femoral artery [1]; 100 μg/kg i.v.) was 41.4 mL/min. For the same compound, the “Increase in femoral arterial blood flow” value (femoral artery [1]; 300 μg/kg i.v.) was 70.2 mL/min, the “Increase in femoral arterial blood flow” value (femoral artery [1]; 1000 μg/kg i.v.) was 79.2 mL/min and the “Increase in femoral arterial blood flow” value (femoral artery [2]; 10 μg/kg i.v.) was 22 mL/min. The “Increase in femoral arterial blood flow” value (femoral artery [2]; 30 μg/kg i.v.) was 28 mL/min, the “Increase in femoral arterial blood flow” value (femoral artery [2]; 100 μg/kg i.v.) was 48 mL/min and the “Increase in femoral arterial blood flow” value (femoral artery [2]; 300 μg/kg i.v.) was 74 mL/min.

With CNCCN1C(=O)[C@@H](OC(C)=O)[C@@H](c2ccc(C)cc2)Sc2cc(C)ccc21 [C] the “Increase in femoral arterial blood flow” value (femoral artery [1]; 30 μg/kg i.v.) was 6.8 mL/min, the “Increase in femoral arterial blood flow” value (femoral artery [1]; 100 μg/kg i.v.) was 25.6 mL/min and the “Increase in femoral arterial blood flow” value (femoral artery [1]; 300 μg/kg i.v.) was 44.6 mL/min. The “Increase in femoral arterial blood flow” value (femoral artery [1]; 1000 μg/kg i.v.) was 49.0 mL/min, the “Increase in femoral arterial blood flow” value (femoral artery [2]; 10 μg/kg i.v.) was 6 mL/min and the “Increase in femoral arterial blood flow” value (femoral artery [2]; 30 μg/kg i.v.) was 19 mL/min. For the same compound, the “Increase in femoral arterial blood flow” value (femoral artery [2]; 100 μg/kg i.v.) was 50 mL/min and the “Increase in femoral arterial blood flow” value (femoral artery [2]; 300 μg/kg i.v.) was 65 mL/min.

For CC(=O)O[C@@H]1C(=O)N(CCN(C)C)c2ccc(CO)cc2S[C@@H]1c1ccc(C)cc1 [Compound E, (-)-cis-2-(4-methylphenyl)-3-acetoxy-5-[2-(dimethylamino)ethyl]-8-hydroxymethyl-2,3-dihydro-1,5-benzothiazepin-4(5H)-one oxalate], the “Increase in femoral arterial blood flow” value (femoral artery [1]; 30 μg/kg i.v.) was 15.6 mL/min, the “Increase in femoral arterial blood flow” value (femoral artery [1]; 100 μg/kg i.v.) was 55.6 mL/min and the “Increase in femoral arterial blood flow” value (femoral artery [1]; 300 μg/kg i.v.) was 69.2 mL/min. For the same compound, the “Increase in femoral arterial blood flow” value (femoral artery [1]; 1000 μg/kg i.v.) was 68.6 mL/min, the “Increase in femoral arterial blood flow” value (femoral artery [2]; 30 μg/kg i.v.) was 15 mL/min and the “Increase in femoral arterial blood flow” value (femoral artery [2]; 100 μg/kg i.v.) was 37 mL/min. The “Increase in femoral arterial blood flow” value (femoral artery [2]; 300 μg/kg i.v.) was 36 mL/min.

For Clc1ccccc1CN1CCc2sccc2C1 [Compound K, ticlopidine], the “% Inhibition of edema” value (hind leg edema) was -9%, the Edema (hind leg edema) was 48 ± 2% and the edema inhibition activity (hind leg edema) was “did not show any edema inhibition activity”.

With CC(=O)Oc1ccccc1C(=O)O [Compound L, acetyl salicylic acid] the “% Inhibition of edema” value (hind leg edema) was -25%, the Edema (hind leg edema) was 55 ± 8% and the edema inhibition activity (hind leg edema) was “did not show any edema inhibition activity”.

CNCCN1C(=O)[C@@H](O)[C@@H](c2ccc(C)cc2)Sc2cc(C)ccc21 [D] was tested, and the “Increase in femoral arterial blood flow” value (femoral artery [2]; 100 μg/kg i.v.) was 11 mL/min and the “Increase in femoral arterial blood flow” value (femoral artery [2]; 300 μg/kg i.v.) was 35 mL/min.

In the case of COc1ccc([C@H]2Sc3ccccc3N(CCN(C)C)C(=O)[C@H]2OC(C)=O)cc1 [F], the “Arterial Blood Pressure change (side effects)” value (from here on “Arterial Blood Pressure change”) (arterial blood pressure; 1 min) is reported as -1.5 ΔmmHg, the “Arterial Blood Pressure change” value (arterial blood pressure; 3 min) is reported as -0.5 ΔmmHg and the “Arterial Blood Pressure change” value (arterial blood pressure; 5 min) is reported as 1.0 ΔmmHg. For the same compound, the “Arterial Blood Pressure change” value (arterial blood pressure; 10 min) was 1.5 ΔmmHg, the “Arterial Blood Pressure change” value (arterial blood pressure; 20 min) was 1.5 ΔmmHg and the “Arterial Blood Pressure change” value (arterial blood pressure; 30 min) was 2.5 ΔmmHg. The “Increase in femoral arterial blood flow” value (femoral artery [1]; 10 μg/kg i.v.) was 10.7 mL/min, the “Increase in femoral arterial blood flow” value (femoral artery [1]; 30 μg/kg i.v.) was 21.0 mL/min and the “Increase in femoral arterial blood flow” value (femoral artery [1]; 100 μg/kg i.v.) was 27.3 mL/min. For the same compound, the “Increase in femoral arterial blood flow” value (femoral artery [1]; 300 μg/kg i.v.) was 37.0 mL/min, the “Increase in femoral arterial blood flow” value (femoral artery [2]; 10 μg/kg i.v.) was 11 mL/min and the “Increase in femoral arterial blood flow” value (femoral artery [2]; 30 μg/kg i.v.) was 21 mL/min. The “Increase in femoral arterial blood flow” value (femoral artery [2]; 100 μg/kg i.v.) was 27 mL/min, the “Increase in femoral arterial blood flow” value (femoral artery [2]; 300 μg/kg i.v.) was 37 mL/min and the “Femoral Arterial Blood Flow change” value (femoral artery [3]; 3 min) was 36.0 Δ ml/min. For the same compound, the “Femoral Arterial Blood Flow change” value (femoral artery [3]; 5 min) was 48.0 Δ ml/min, the “Femoral Arterial Blood Flow change” value (femoral artery [3]; 10 min) was 63.5 Δ ml/min and the “Femoral Arterial Blood Flow change” value (femoral artery [3]; 20 min) was 64.5 Δ ml/min. The “Femoral Arterial Blood Flow change” value (femoral artery [3]; 30 min) was 54.5 Δ ml/min, the “AUC60 of the femoral arterial blood flow” value (femoral artery [3]) was 2977.0 mL and the “femoral arterial blood flow increasing activity” value (femoral artery [3]; even after 30 minutes, in words) was “excellent femoral arterial blood flow increasing activity”. For the same compound, the “Vertebral Arterial Blood Flow change (side effects)” value (vertebral artery; 1 min) was -0.5 Δ ml/min, the “Vertebral Arterial Blood Flow change (side effects)” value (vertebral artery; 3 min) was -1.0 Δ ml/min and the “Vertebral Arterial Blood Flow change (side effects)” value (vertebral artery; 5 min) was -1.0 Δ ml/min. The “Vertebral Arterial Blood Flow change (side effects)” value (vertebral artery; 10 min) was 0.0 Δ ml/min, the “Vertebral Arterial Blood Flow change (side effects)” value (vertebral artery; 20 min) was 0.0 Δ ml/min and the “Vertebral Arterial Blood Flow change (side effects)” value (vertebral artery; 30 min) was 0.5 Δ ml/min.

CC(=O)O[C@H]1C(=O)N(CCN(C)C)c2ccc(C)cc2S[C@H]1c1ccc(C)cc1 [G, reference compound] was tested, and the “Arterial Blood Pressure change” value (arterial blood pressure; 1 min) was -11.0 ΔmmHg, the “Arterial Blood Pressure change” value (arterial blood pressure; 3 min) was -2.5 ΔmmHg and the “Arterial Blood Pressure change” value (arterial blood pressure; 5 min) was 1.5 ΔmmHg. The “Arterial Blood Pressure change” value (arterial blood pressure; 10 min) was 1.0 ΔmmHg, the “Arterial Blood Pressure change” value (arterial blood pressure; 20 min) was 1.0 ΔmmHg and the “Arterial Blood Pressure change” value (arterial blood pressure; 30 min) was 1.5 ΔmmHg. The “effect on arterial blood pressure” value (arterial blood pressure; [4]) was “remarkable changes”, the “Femoral Arterial Blood Flow change” value (femoral artery [3]; 1 min) was 30.0 Δ ml/min and the “Femoral Arterial Blood Flow change” value (femoral artery [3]; 3 min) was 24.0 Δ ml/min. The “Femoral Arterial Blood Flow change” value (femoral artery [3]; 5 min) was 16.0 Δ ml/min, the “Femoral Arterial Blood Flow change” value (femoral artery [3]; 10 min) was 9.5 Δ ml/min and the “Increase in femoral arterial blood flow” value (femoral artery [3]; in words) was “substantially disappeared”. The “Femoral Arterial Blood Flow change” value (femoral artery [3]; 20 min) was 7.5 Δ ml/min, the “Femoral Arterial Blood Flow change” value (femoral artery [3]; 30 min) was 5.0 Δ ml/min and the “AUC60 of the femoral arterial blood flow” value (femoral artery [3]) was 475.3 mL. The “Vertebral Arterial Blood Flow change (side effects)” value (vertebral artery; 1 min) was 26.5 Δ ml/min, the “Vertebral Arterial Blood Flow change (side effects)” value (vertebral artery; 3 min) was 18.0 Δ ml/min and the “Vertebral Arterial Blood Flow change (side effects)” value (vertebral artery; 5 min) was 11.5 Δ ml/min. For the same compound, the “Vertebral Arterial Blood Flow change (side effects)” value (vertebral artery; 10 min) was 7.0 Δ ml/min, the “Vertebral Arterial Blood Flow change (side effects)” value (vertebral artery; 20 min) was 3.5 Δ ml/min and the “Vertebral Arterial Blood Flow change (side effects)” value (vertebral artery; 30 min) was 2.5 Δ ml/min. The “effect on vertebral arterial blood flow” value (vertebral artery; [4]) was “remarkable changes”.

In the case of COc1ccc([C@@H]2Sc3ccccc3N(CCN(C)C)C(=O)[C@@H]2OC(C)=O)cc1 [H, reference compound], the “Arterial Blood Pressure change” value (arterial blood pressure; 1 min) is reported as -11.5 ΔmmHg, the “Arterial Blood Pressure change” value (arterial blood pressure; 3 min) is reported as -4.5 ΔmmHg and the “Arterial Blood Pressure change” value (arterial blood pressure; 5 min) is reported as -2.0 ΔmmHg. The “Arterial Blood Pressure change” value (arterial blood pressure; 10 min) was -1.0 ΔmmHg, the “Arterial Blood Pressure change” value (arterial blood pressure; 20 min) was 0.0 ΔmmHg and the “Arterial Blood Pressure change” value (arterial blood pressure; 30 min) was 1.0 ΔmmHg. The “Femoral Arterial Blood Flow change” value (femoral artery [3]; 1 min) was 38.5 Δ ml/min, the “Femoral Arterial Blood Flow change” value (femoral artery [3]; 3 min) was 34.5 Δ ml/min and the “Femoral Arterial Blood Flow change” value (femoral artery [3]; 5 min) was 22.5 Δ ml/min. The “Femoral Arterial Blood Flow change” value (femoral artery [3]; 10 min) was 8.0 Δ ml/min, the “Increase in femoral arterial blood flow” value (femoral artery [3]; in words) was “substantially disappeared” and the “Femoral Arterial Blood Flow change” value (femoral artery [3]; 20 min) was 1.0 Δ ml/min. For the same compound, the “Femoral Arterial Blood Flow change” value (femoral artery [3]; 30 min) was -1.5 Δ ml/min, the “AUC60 of the femoral arterial blood flow” value (femoral artery [3]) was 300.5 mL and the “Vertebral Arterial Blood Flow change (side effects)” value (vertebral artery; 1 min) was 25.5 Δ ml/min. For the same compound, the “Vertebral Arterial Blood Flow change (side effects)” value (vertebral artery; 3 min) was 18.0 Δ ml/min, the “Vertebral Arterial Blood Flow change (side effects)” value (vertebral artery; 5 min) was 13.5 Δ ml/min and the “Vertebral Arterial Blood Flow change (side effects)” value (vertebral artery; 10 min) was 7.5 Δ ml/min. For the same compound, the “Vertebral Arterial Blood Flow change (side effects)” value (vertebral artery; 20 min) was 4.5 Δ ml/min and the “Vertebral Arterial Blood Flow change (side effects)” value (vertebral artery; 30 min) was 2.0 Δ ml/min.
